Measurements published in US20230055237A1, “COMPOUNDS AND METHODS FOR THE TREATMENT OF CYSTIC FIBROSIS” (Flatley Discovery Lab, LLC, priority 2019, published 2023).

Biological target: T1, CFTR (Homo sapiens, UniProt P13569, DEL508-508)
T1 construct: Primary CF airway epithelial cells were obtained from the UNC Cystic Fibrosis Tissue Procurement and Cell Culture Core; host or cells: primary CF airway epithelial cells, differentiated at the air-liquid interface
Test: Equivalent current assay in primary CF airway epithelial cells (NAUC, combination with 1st site corrector FDL169 or VX-809)
Assay type: cell-based
Conditions: 37° C., 24 h

[1] = test compound 1 μM in combination with 1st site corrector VX-809 (3 μM)
[2] = test compound 3 μM in combination with 1st site corrector VX-809 (3 μM)
[3] = test compound 1 μM in combination with 1st site corrector FDL169 (3 μM)
[4] = test compound 3 μM in combination with 1st site corrector FDL169 (3 μM)
[5] = test compound 10 μM in combination with 1st site corrector FDL169 (3 μM)
[6] = test compound 10 μM in combination with 1st site corrector VX-809 (3 μM)

T1 sequence (P13569 with tags, fused parts or gaps DEL508-508): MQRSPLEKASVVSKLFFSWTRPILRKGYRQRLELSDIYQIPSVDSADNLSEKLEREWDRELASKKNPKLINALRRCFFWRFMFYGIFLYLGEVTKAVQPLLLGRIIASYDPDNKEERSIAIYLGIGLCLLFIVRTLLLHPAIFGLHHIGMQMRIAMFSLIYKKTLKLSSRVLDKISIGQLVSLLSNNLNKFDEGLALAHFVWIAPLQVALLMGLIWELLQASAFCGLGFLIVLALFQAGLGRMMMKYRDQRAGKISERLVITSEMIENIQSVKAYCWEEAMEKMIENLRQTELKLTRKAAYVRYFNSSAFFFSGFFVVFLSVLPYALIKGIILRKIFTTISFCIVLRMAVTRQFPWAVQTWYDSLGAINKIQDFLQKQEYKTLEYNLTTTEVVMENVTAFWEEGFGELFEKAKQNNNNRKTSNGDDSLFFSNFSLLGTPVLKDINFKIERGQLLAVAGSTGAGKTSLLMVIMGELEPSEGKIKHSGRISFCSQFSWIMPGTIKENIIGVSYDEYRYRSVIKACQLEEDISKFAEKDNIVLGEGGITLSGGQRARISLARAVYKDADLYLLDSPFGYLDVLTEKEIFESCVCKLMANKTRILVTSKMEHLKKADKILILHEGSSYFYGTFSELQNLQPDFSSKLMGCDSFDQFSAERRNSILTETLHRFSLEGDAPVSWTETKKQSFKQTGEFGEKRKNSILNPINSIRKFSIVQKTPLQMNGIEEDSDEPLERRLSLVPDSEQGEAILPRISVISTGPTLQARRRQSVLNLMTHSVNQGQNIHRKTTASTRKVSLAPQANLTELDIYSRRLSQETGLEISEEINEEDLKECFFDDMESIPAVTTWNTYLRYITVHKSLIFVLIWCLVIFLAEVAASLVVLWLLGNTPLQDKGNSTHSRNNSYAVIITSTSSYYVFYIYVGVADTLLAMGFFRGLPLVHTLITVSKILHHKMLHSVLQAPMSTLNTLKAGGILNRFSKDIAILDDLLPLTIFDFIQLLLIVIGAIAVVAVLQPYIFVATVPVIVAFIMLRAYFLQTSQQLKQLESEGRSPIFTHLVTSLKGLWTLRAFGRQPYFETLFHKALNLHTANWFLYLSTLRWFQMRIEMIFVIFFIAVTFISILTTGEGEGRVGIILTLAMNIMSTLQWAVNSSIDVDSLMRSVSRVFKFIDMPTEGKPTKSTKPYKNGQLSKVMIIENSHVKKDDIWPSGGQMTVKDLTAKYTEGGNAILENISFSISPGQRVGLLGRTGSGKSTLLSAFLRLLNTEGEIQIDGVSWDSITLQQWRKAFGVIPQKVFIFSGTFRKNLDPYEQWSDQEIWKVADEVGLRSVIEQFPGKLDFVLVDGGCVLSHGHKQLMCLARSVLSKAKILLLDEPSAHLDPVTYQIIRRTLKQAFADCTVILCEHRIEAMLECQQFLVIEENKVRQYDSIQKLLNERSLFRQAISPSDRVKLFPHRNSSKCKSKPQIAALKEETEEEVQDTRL

## O=C(Nc1cccc2nccnc12)[C@H]1[C@H]2CC(F)(F)CN2[C@]2(C(=O)Nc3c(Cl)cc(Cl)cc32)[C@H]1C(=O)O [Example 126]
[1]
  Nauc @ 1 μM: ++ (NAUC “++” refers to an observed NAUC 170-140% of positive control)
[2]
  Nauc @ 3 μM: ++ (NAUC “++” refers to an observed NAUC 170-140% of positive control)

## O=C(O)[C@@H]1[C@H](C(=O)N(CC2CC2)c2cc(Cl)cc(Cl)c2)[C@H](C(F)(F)F)NC12C(=O)Nc1c(Cl)cc(Cl)cc12 (single isomer, unassigned) [Example 270a]
[3]
  Nauc @ 1 μM: +++ (NAUC “+++” refers to an observed NAUC>170% of positive control)
[4]
  Nauc @ 3 μM: +++ (NAUC “+++” refers to an observed NAUC>170% of positive control)
[5]
  Nauc @ 10 μM: ++ (NAUC “++” refers to an observed NAUC 170-140% of positive control)

## COc1c(Cl)cc(N(C)C(=O)[C@H]2[C@H]3CC(F)(F)CN3[C@]3(C(=O)Nc4c(Cl)cc(Cl)cc43)[C@H]2C(=O)O)cc1Cl [Example 179]
[3]
  Nauc @ 1 μM: ++ (NAUC “++” refers to an observed NAUC 170-140% of positive control)
[4]
  Nauc @ 3 μM: ++ (NAUC “++” refers to an observed NAUC 170-140% of positive control)
[5]
  Nauc @ 10 μM: +++ (NAUC “+++” refers to an observed NAUC>170% of positive control)

## COc1cc(C(F)(F)F)cc(NC(=O)C2C3CC(F)(F)CN3C3(C(=O)Nc4c(Cl)cc(Cl)cc43)C2C(=O)O)n1 (single isomer, unassigned) [Example 80.7a.2, 5,7-dichloro-6′,6′-difluoro-1′-((6-methoxy-4-(trifluoromethyl)pyridin-2-yl)carbamoyl)-2-oxo-1′,2′,5′,6′,7′,7a′-hexahydrospiro[indoline-3,3′-pyrrolizine]-2′-carboxylic acid]
[1]
  Nauc @ 1 μM: + (NAUC “+” refers to an observed NAUC <140% of positive control)
[2]
  Nauc @ 3 μM: +++ (NAUC “+++” refers to an observed NAUC>170% of positive control)
[6]
  Nauc @ 10 μM: +++ (NAUC “+++” refers to an observed NAUC>170% of positive control)

## Cc1cccc(CCNC(=O)C2C3CC(F)(F)CN3C3(C(=O)Nc4c(Cl)cc(Cl)cc43)C2C(=O)O)c1 (centres unmarked) [Example 48]
[2]
  Nauc @ 3 μM: ++ (NAUC “++” refers to an observed NAUC 170-140% of positive control)
[6]
  Nauc @ 10 μM: +++ (NAUC “+++” refers to an observed NAUC>170% of positive control)

## CN(C(=O)[C@H]1[C@H]2CC(F)(F)CN2[C@]2(C(=O)Nc3c(Cl)cc(Cl)cc32)[C@H]1C(=O)O)c1cccc(C(F)(F)F)n1 [Example 114]
[1]
  Nauc @ 1 μM: +++ (NAUC “+++” refers to an observed NAUC>170% of positive control)
[2]
  Nauc @ 3 μM: ++ (NAUC “++” refers to an observed NAUC 170-140% of positive control)
[6]
  Nauc @ 10 μM: +++ (NAUC “+++” refers to an observed NAUC>170% of positive control)

## COc1cc(C(F)(F)F)cc(NC(=O)C2C3CC(F)(F)CN3C3(C(=O)Nc4c(Cl)cc(Cl)cc43)C2C(=O)O)n1 (single isomer, unassigned) [Example 80.7b.1, 5,7-dichloro-6′,6′-difluoro-1′-((6-methoxy-4-(trifluoromethyl)pyridin-2-yl)carbamoyl)-2-oxo-1′,2′,5′,6′,7′,7a′-hexahydrospiro[indoline-3,3′-pyrrolizine]-2′-carboxylic acid]
[6]
  Nauc @ 10 μM: + (NAUC “+” refers to an observed NAUC <140% of positive control)

## CN1C(C(F)(F)F)C(C(=O)Nc2cc(Cl)cc(Cl)c2)C(C(=O)O)C12C(=O)Nc1c(Cl)cc(Cl)cc12 (centres unmarked) [Example 43]
[2]
  Nauc @ 3 μM: +++ (NAUC “+++” refers to an observed NAUC>170% of positive control)
[6]
  Nauc @ 10 μM: ++ (NAUC “++” refers to an observed NAUC 170-140% of positive control)

## O=C(O)[C@H]1[C@@H](C(=O)N(c2cc(Cl)cc(Cl)c2)C2CC(O)C2)[C@H]2CC(F)(F)CN2[C@]12C(=O)Nc1c(Cl)cc(Cl)cc12 (some centres unmarked) [Example 158]
[3]
  Nauc @ 1 μM: + (NAUC “+” refers to an observed NAUC <140% of positive control)
[4]
  Nauc @ 3 μM: + (NAUC “+” refers to an observed NAUC <140% of positive control)

## O=C(Nc1cc(Cl)cc(Cl)c1)C1C(C(F)(F)c2ccccc2Cl)NC2(C(=O)Nc3c(Cl)cc(Cl)cc32)C1C(=O)O (centres unmarked) [Example 63]
[6]
  Nauc @ 10 μM: +++ (NAUC “+++” refers to an observed NAUC>170% of positive control)

## CN(C(=O)[C@H]1[C@H]2CC(F)(F)CN2[C@]2(C(=O)Nc3c(Cl)cc(Cl)cc32)[C@H]1C(=O)O)c1cc(Cl)cc(Cl)c1F (single isomer, unassigned) [Example 265b]
[1]
  Nauc @ 1 μM: + (NAUC “+” refers to an observed NAUC <140% of positive control)
[2]
  Nauc @ 3 μM: + (NAUC “+” refers to an observed NAUC <140% of positive control)
[6]
  Nauc @ 10 μM: + (NAUC “+” refers to an observed NAUC <140% of positive control)

## CN1C(=O)[C@]2(c3cc(Cl)cc(Cl)c31)[C@@H](C(=O)O)[C@@H](C(=O)N(CC1CC1)c1cc(Cl)cc(Cl)c1)[C@H]1CC(F)(F)CN12 [Example 202]
[3]
  Nauc @ 1 μM: ++ (NAUC “++” refers to an observed NAUC 170-140% of positive control)
[4]
  Nauc @ 3 μM: ++ (NAUC “++” refers to an observed NAUC 170-140% of positive control)
[5]
  Nauc @ 10 μM: + (NAUC “+” refers to an observed NAUC <140% of positive control)

## O=C(Nc1ccc2ccccc2c1)[C@H]1[C@H]2CC(F)(F)CN2[C@]2(C(=O)Nc3c(Cl)cc(Cl)cc32)[C@H]1C(=O)O [Example 117]
[1]
  Nauc @ 1 μM: + (NAUC “+” refers to an observed NAUC <140% of positive control)
[2]
  Nauc @ 3 μM: ++ (NAUC “++” refers to an observed NAUC 170-140% of positive control)
[6]
  Nauc @ 10 μM: + (NAUC “+” refers to an observed NAUC <140% of positive control)

## O=C(Nc1ccc2ncncc2c1)[C@H]1[C@H]2CC(F)(F)CN2[C@]2(C(=O)Nc3c(Cl)cc(Cl)cc32)[C@H]1C(=O)O [Example 140]
[3]
  Nauc @ 1 μM: + (NAUC “+” refers to an observed NAUC <140% of positive control)
[4]
  Nauc @ 3 μM: + (NAUC “+” refers to an observed NAUC <140% of positive control)

## O=C(Nc1cc(Cl)cc(Cl)c1)C1C(C(F)(F)c2ccc(Cl)cc2)NC2(C(=O)Nc3c(Cl)cc(Cl)cc32)C1C(=O)O (centres unmarked) [Example 67.9b, 5,7-dichloro-5,7′-((4-chlorophenyl)difluoromethyl)-4′-((3,5-dichlorophenyl)carbamoyl)-2-oxospiro[indoline-3,2′-pyrrolidine]-3′-carboxylic acid]
[1]
  Nauc @ 1 μM: + (NAUC “+” refers to an observed NAUC <140% of positive control)
[2]
  Nauc @ 3 μM: ++ (NAUC “++” refers to an observed NAUC 170-140% of positive control)
[6]
  Nauc @ 10 μM: +++ (NAUC “+++” refers to an observed NAUC>170% of positive control)

## Cn1cc(N(CC2CC2)C(=O)[C@H]2[C@H]3CC(F)(F)CN3[C@]3(C(=O)Nc4c(Cl)cc(Cl)cc43)[C@H]2C(=O)O)c(C(F)(F)F)n1 [Example 166]
[3]
  Nauc @ 1 μM: + (NAUC “+” refers to an observed NAUC <140% of positive control)
[4]
  Nauc @ 3 μM: + (NAUC “+” refers to an observed NAUC <140% of positive control)

## CC(C)(C)c1cccc(CCNC(=O)C2C3N(CCC3(F)F)C3(C(=O)Nc4c(Cl)cc(Cl)cc43)C2C(=O)O)c1 (single isomer, unassigned) [Example 267, 1′-((3-(tert-butyl)phenethyl)carbamoyl)-5,7-dichloro-7′,7′-difluoro-2-oxo-1′,2′,5′,6′,7′,7a′-hexahydrospiro[indoline-3,3′-pyrrolizine]-2′-carboxylic acid]
[1]
  Nauc @ 1 μM: +++ (NAUC “+++” refers to an observed NAUC>170% of positive control)
[2]
  Nauc @ 3 μM: +++ (NAUC “+++” refers to an observed NAUC>170% of positive control)
[6]
  Nauc @ 10 μM: +++ (NAUC “+++” refers to an observed NAUC>170% of positive control)

## O=C(Nc1cc(Cl)cc(Cl)c1F)C1C2CCCN2C2(C(=O)Nc3c(Cl)cc(Cl)cc32)C1C(=O)O (centres unmarked) [Example 37]
[2]
  Nauc @ 3 μM: +++ (NAUC “+++” refers to an observed NAUC>170% of positive control)
[6]
  Nauc @ 10 μM: +++ (NAUC “+++” refers to an observed NAUC>170% of positive control)

## O=C(Nc1cc(Cl)cc(Cl)c1)C1C2CC(F)(F)CN2C2(C(=O)Nc3c(Cl)cc(Cl)cc32)C1C(=O)O (centres unmarked) [Example 7]
[6]
  Nauc @ 10 μM: +++ (NAUC “+++” refers to an observed NAUC>170% of positive control)

## CN(C(=O)N1C(=O)C2(c3cc(Cl)cc(Cl)c31)C(C(=O)OCOC(=O)C(C)(C)C)CC1CC(F)(F)CN12)c1cc(Cl)cc(Cl)c1 (single isomer, unassigned) [Example 251b, (pivaloyloxy)methyl 5,7-dichloro-1-((3,5-dichlorophenyl)(methyl)carbamoyl)-6′,6′-difluoro-2-oxo-1′,2′,5′,6′,7′,7a′-hexahydrospiro[indoline-3,3′-pyrrolizine]-2′-carboxylate]
[6]
  Nauc @ 10 μM: + (NAUC “+” refers to an observed NAUC <140% of positive control)

## CN(C)CCN(C(=O)[C@H]1[C@H]2CC(F)(F)CN2[C@]2(C(=O)Nc3c(Cl)cc(Cl)cc32)[C@H]1C(=O)O)c1cc(Cl)cc(Cl)c1 [Example 160]
[3]
  Nauc @ 1 μM: + (NAUC “+” refers to an observed NAUC <140% of positive control)
[4]
  Nauc @ 3 μM: + (NAUC “+” refers to an observed NAUC <140% of positive control)
